Legend:
Type in all cases: cell-based
[1] = biological target: T1, human prostanoid EP3 receptor (Homo sapiens, UniProt P43115); assay: FLIPR Ca2+ signaling PG antagonist assay, EP3 stable cell line; settings: HEK-293 EBNA cells, human recombinant EP3 with chimeric Gqi; standard agonist PGE2
T1 construct: expressed in transfected cells
T1 sequence (P43115 1-390): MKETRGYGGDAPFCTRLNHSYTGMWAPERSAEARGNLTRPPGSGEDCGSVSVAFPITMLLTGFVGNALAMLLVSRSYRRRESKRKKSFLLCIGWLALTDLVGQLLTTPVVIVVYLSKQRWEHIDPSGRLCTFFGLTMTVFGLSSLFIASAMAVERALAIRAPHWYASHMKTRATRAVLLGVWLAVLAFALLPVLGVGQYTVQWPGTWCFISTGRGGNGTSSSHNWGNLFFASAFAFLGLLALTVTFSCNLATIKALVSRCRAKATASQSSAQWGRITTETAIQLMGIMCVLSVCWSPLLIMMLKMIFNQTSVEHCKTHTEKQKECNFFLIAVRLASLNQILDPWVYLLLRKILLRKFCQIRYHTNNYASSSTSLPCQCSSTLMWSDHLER
Experimental: (§1) The above compounds were tested for PG antagonist activity as follows using human recombinant prostanoid receptor (DP1, EP1-4, FP, IP and TP) stable cell lines: In order to measure the response of Gs and Gi coupled prostanoid receptors as a Ca^2+ signal, chimeric G protein cDNAs were used. Stable cell lines over-expressing human prostanoid DP1, EP1-4, FP, IP, and TP receptors were established as follows:
(§2) Briefly, human prostanoid DP1, EP2, and EP4 receptor cDNAs were co-transfected with chimeric Gqs cDNA containing a haemagglutanin (HA) epitope; human prostanoid EP3 receptors were co-transfected with chimeric Gqi-HA; human EP1, FP, IP, and TP receptor cDNAs were expressed with no exogenous G-proteins. Gqs and Gqi chimeric cDNAs (Molecular Devices, Sunnyvale, Calif., U.S.A.), as well as cDNAs of prostanoid receptors, were cloned into a pCEP4 vector with a hygromycin B selection marker. Transfection into HEK-293 EBNA (Epstein-Barr virus nuclear antigen) cells was achieved by the FuGENE 6 transfection Reagent (Roche Applied Science, Indianapolis, Ind., USA). Stable transfectants were selected according to hygromycin resistance. Because Gqs and Gqi contained an HA epitope, G-protein expression was detected by Western blotting analysis using anti-mouse HA monoclonal antibody and horseradish peroxidase (HRP)-conjugated secondary antibody, while functional expression of prostanoid receptors was detected by FLIPR screening (Matias et al., 2004). These stable cell lines were validated using previously published antagonists at 10 μM against serial dilutions of standard agonists by FLIPR functional assays for Ca^2+ Signaling (as described below).
(§3) Ca^2+ signaling studies were performed using a FLIPR TETRA system (Molecular Devices, Sunnyvale, Calif., USA) in the 384-format. This is a high-throughput instrument for cell-based assays to monitor Ca^2+ signaling associated with GPCRs and ion channels. Cells were seeded at a density of 5×10^4 cells/well in BioCoat poly-D-lysine coated, black wall, clear bottom 384-well plates (BD Biosciences, Franklin lakes, NJ, USA) and allowed to attach overnight in an incubator at 37° C. The cells were then washed twice with HBSS-HEPES buffer (Hanks' balanced salt solution without bicarbonate and phenol red, 20 mM HEPES, pH 7.4) using an ELx405 Select CW Microplate Washer (BioTek, Winooski, Vt., USA). After 60 min of dye-loading in the dark using the Ca^2+-sensitive dye Fluo-4AM (Invitrogen, Carlsbad, Calif., USA), at a final concentration of 2×10^−6M, the plates were washed 4 times with HBSS-HEPES buffer to remove excess dye and leaving 50 μl of buffer in each well. The plates were then placed in the FLIPR TETRA instrument and allowed to equilibrate at 37° C. Compounds were added in a 25 μl volume to each well to give final concentrations of 0.1 μM, 0.3 μM, 1 μM, 3 μM, 10 μM, and 30 μM; or 0.067 μM, 0.1 μM, 0.2 μM, 0.3 μM, 0.67 μM, and 1 μM for cells over-expressing TP receptors. After 4.5 minutes, a 7-point serial dilution of the standard agonist for the corresponding receptor, in a 25 μl volume was injected at the final concentrations from 10^−11M to 10^−5M in 10-fold serial dilution increments for cells expressing human recombinant DP1, EP1, EP2, EP3, EP4, FP, and IP receptors. The dose range for the standard agonist for human recombinant TP receptors was from 10^−12M to 10^−6M. HBSS-HEPES buffer was used as the negative control for the standard agonists. Cells were excited with LED (light emitting diode) excitation at 470-495 nm and emission was measured through an emission filter at 515-575 nm. Assay plates were read for 3.5 minutes using the FLIPR^TETRA. The peak increase in fluorescence intensity was recorded for each well. On each plate, negative controls, dose response of positive controls, and co-treatments of antagonist-agonist for each dose were in triplicates. Standard agonists were as follows: DP=BW 245C, EP1-EP4=PGE2, FP=17-phenyl-PGF2α, IP=Cicaprost, and TP=U-46619. […]

[2] = biological target: T2, human prostanoid IP receptor (Homo sapiens, UniProt P43119); assay: FLIPR Ca2+ signaling PG antagonist assay, IP stable cell line; settings: HEK-293 EBNA cells, human recombinant IP, no exogenous G-protein; standard agonist Cicaprost
T2 construct: expressed in transfected cells
Summary of the method: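 HEK-293 EBNA stable lines; EP2 co-expressed with chimeric Gqs, EP1/IP/TP with no exogenous G protein. Fluo-4AM-loaded cells pretreated 4.5 min at 37 °C with compound (0.1–30 μM; TP 0.067–1 μM), then standard agonist (PGE2, cicaprost, U-46619) 10^−11–10^−5 M (TP 10^−12–10^−6 M); peak fluorescence read 3.5 min, nonlinear regression.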

[3] = biological target: T3, human prostanoid DP1 receptor (Homo sapiens, UniProt Q13258); assay: FLIPR Ca2+ signaling PG antagonist assay, DP1 stable cell line; settings: HEK-293 EBNA cells, human recombinant DP1 with chimeric Gqs, standard agonist BW 245C; for Kb: read-out: DP (Kb, PG antagonist activity)
T3 construct: expressed in transfected cells
T3 sequence (Q13258 1-359): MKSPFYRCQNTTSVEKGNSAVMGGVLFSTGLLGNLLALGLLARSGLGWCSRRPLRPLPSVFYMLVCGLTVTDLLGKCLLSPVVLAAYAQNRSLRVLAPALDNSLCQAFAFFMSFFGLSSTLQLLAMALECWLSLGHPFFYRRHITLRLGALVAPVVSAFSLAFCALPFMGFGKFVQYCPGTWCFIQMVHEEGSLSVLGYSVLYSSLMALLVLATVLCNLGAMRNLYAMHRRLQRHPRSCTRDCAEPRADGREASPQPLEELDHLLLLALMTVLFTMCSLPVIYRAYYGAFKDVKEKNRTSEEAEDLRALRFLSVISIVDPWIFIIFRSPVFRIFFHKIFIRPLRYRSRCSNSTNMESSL
Summary of the method: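 Stable HEK-293 EBNA lines (DP1 with chimeric Gqs, EP3 with Gqi, EP1 and FP without exogenous G protein) were Fluo-4AM-loaded and pretreated 4.5 min at 37 °C with compound (0.1–30 μM). Agonist (BW 245C for DP1, PGE2 for EP1/EP3, 17-phenyl-PGF2α for FP) was then added at 10^−11–10^−5 M. Peak Ca2+ fluorescence was taken relative to agonist at 10^−6 M.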

[4] = biological target: T4, human prostanoid EP4 receptor (Homo sapiens, UniProt P35408); assay: FLIPR Ca2+ signaling PG antagonist assay, EP4 stable cell line; settings: HEK-293 EBNA cells, human recombinant EP4 with chimeric Gqs; standard agonist PGE2
T4 construct: expressed in transfected cells
Experimental: as §1, §2, §3

T4 sequence (P35408 whole entry): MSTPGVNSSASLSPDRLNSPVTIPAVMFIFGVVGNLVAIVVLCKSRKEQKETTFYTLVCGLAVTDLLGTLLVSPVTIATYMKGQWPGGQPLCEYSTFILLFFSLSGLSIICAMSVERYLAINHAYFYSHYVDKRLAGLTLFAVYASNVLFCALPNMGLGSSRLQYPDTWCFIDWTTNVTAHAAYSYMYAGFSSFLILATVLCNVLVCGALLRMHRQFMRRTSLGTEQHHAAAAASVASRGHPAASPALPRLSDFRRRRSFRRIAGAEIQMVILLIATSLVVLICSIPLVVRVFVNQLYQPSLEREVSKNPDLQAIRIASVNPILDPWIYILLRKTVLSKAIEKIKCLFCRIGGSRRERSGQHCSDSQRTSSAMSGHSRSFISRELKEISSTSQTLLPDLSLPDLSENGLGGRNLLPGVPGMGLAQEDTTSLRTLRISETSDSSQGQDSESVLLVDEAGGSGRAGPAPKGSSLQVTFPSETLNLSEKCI
T2 sequence (P43119 whole entry): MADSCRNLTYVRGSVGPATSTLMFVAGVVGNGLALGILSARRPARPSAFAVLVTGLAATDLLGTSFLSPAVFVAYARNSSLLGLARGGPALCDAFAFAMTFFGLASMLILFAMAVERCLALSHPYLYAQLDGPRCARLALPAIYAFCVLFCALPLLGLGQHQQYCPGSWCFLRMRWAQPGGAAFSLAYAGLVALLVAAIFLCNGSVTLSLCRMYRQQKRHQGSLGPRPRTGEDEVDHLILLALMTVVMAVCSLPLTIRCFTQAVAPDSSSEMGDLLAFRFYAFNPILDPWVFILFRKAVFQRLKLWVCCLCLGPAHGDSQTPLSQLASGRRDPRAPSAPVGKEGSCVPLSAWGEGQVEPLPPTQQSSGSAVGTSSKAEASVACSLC

CC(C)COc1ccc(OCC(F)F)cc1Cn1ncc2cc(C(=O)O)ccc21 [Example 55, 1-[5-(2,2-Difluoro-Ethoxy)-2-Isobutoxy-Benzyl]-1H-Indazole-5-Carboxylic Acid]
Kb [1]: ≥ 10000 nM | Kb [2]: ≥ 10000 nM | Kb [3]: 1200 nM | Kb [4]: 2100 nM

CCC(CC)COc1ccc(Cl)cc1Cn1ncc2ccc(C(=O)O)cc21 [Example 6]
Kb [1]: ≥ 10000 nM | Kb [2]: ≥ 10000 nM | Kb [3]: 7100 nM | Kb [4]: ≥ 10000 nM

O=C(O)c1ccc2c(cnn2Cc2cc(C(F)(F)F)ccc2OCC2CCCC2)c1 [Example 33, 1-(2-Cyclopentylmethoxy-5-Trifluoromethyl-Benzyl)-1H-Indazole-5-Carboxylic Acid]
Kb [1]: 1400 nM | Kb [2]: 400 nM | Kb [3]: 350 nM | Kb [4]: 30 nM

O=C(O)c1ccc2cnn(Cc3cc(Br)ccc3OCC3CCCC3)c2c1 [Example 44, 1-(5-Bromo-2-Cyclopentylmethoxy-Benzyl)-1H-Indazole-6-Carboxylic Acid]
Kb [1]: 1600 nM | IP (Kb, PG antagonist activity) [2]: PAg | DP (Kb, PG antagonist activity) [3]: PAg | Kb [4]: 3200 nM

CCC(CC)COc1ccc(Br)cc1Cn1c(C)cc2cc(C(=O)O)ccc21 [Example 68, 1-[5-Bromo-2-(2-Ethyl-Butoxy)-Benzyl]-2-Methyl-1H-Indole-5-Carboxylic Acid]
Kb [1]: ≥ 10000 nM | Kb [2]: 6600 nM | Kb [3]: ≥ 10000 nM | Kb [4]: 9700 nM

CC(C)COc1ccc(Br)cc1Cn1ncc2cc(C(=O)O)ccc21 [Example 4]
Kb [1]: 1500 nM | Kb [2]: 800 nM | Kb [3]: 700 nM | Kb [4]: 25 nM

CCc1nn(Cc2cc(Br)ccc2OCC(CC)CC)c2ccc(C(=O)O)cc12 [Example 65, 1-[5-Bromo-2-(2-Ethyl-Butoxy)-Benzyl]-3-Ethyl-1H-Indazole-5-Carboxylic Acid]
Kb [1]: 4700 nM | Kb [2]: 880 nM | Kb [3]: 1500 nM | Kb [4]: 55 nM

CC(C)COc1ccc(OC(F)(F)F)cc1Cn1ccc2cc(C(=O)O)cnc21 [Example 74, 1-(2-Isobutoxy-5-Trifluoromethoxy-Benzyl)-1H-Pyrrolo[2,3-B]Pyridine-5-Carboxylic Acid]
Kb [1]: 2800 nM | Kb [2]: 1400 nM | Kb [3]: 290 nM | Kb [4]: 440 nM

CCC(CC)COc1ccc(Br)cc1Cn1ccc2cc(C(=O)O)ccc21 [Example 69, 1-[5-Bromo-2-(2-Ethyl-Butoxy)-Benzyl]-1H-Indole-5-Carboxylic Acid]
Kb [1]: 7900 nM | Kb [2]: 3000 nM | Kb [3]: 3700 nM | Kb [4]: 130 nM

CC(C)COc1ccc(Br)cc1Cn1ncc2c(C(=O)O)cccc21 [Example 7, 1-(5-Bromo-2-Isobutoxy-Benzyl)-1H-Indazole-4-Carboxylic Acid]
Kb [1]: ≥ 10000 nM | Kb [2]: 1300 nM | Kb [3]: 1900 nM | Kb [4]: 1800 nM

CCC(CC)COc1ccc(Cl)cc1Cn1cc2c(C(=O)O)cccc2n1 [Example 39, 2-[5-Chloro-2-(2-Ethyl-Butoxy)-Benzyl]-2H-Indazole-4-Carboxylic Acid]
Kb [1]: 5500 nM | Kb [2]: 4900 nM | Kb [3]: 1000 nM | Kb [4]: 1600 nM

CC(C)COc1ccc(S(C)(=O)=O)cc1Cn1ncc2cc(C(=O)O)ccc21 [Example 48, 1-(2-Isobutoxy-5-Methanesulfonyl-Benzyl)-1H-Indazole-5-Carboxylic Acid]
Kb [1]: ≥ 10000 nM | Kb [2]: ≥ 10000 nM | Kb [3]: ≥ 10000 nM | Kb [4]: ≥ 10000 nM

O=C(O)c1ccc2c(cnn2Cc2cc(Br)ccc2OCc2ccc(Cl)cc2)c1 [Example 13, 1-[5-Bromo-2-(4-Chloro-Benzyloxy)-Benzyl]-1H-Indazole-5-Carboxylic Acid]
Kb [1]: 8500 nM | Kb [2]: 600 nM | Kb [3]: 1200 nM | Kb [4]: 2700 nM

Cc1nn(Cc2cc(Br)ccc2OCC(C)C)c2ccc(C(=O)O)cc12 [Example 21, 1-(5-Bromo-2-Isobutoxy-Benzyl)-3-Methyl-1H-Indazole-5-Carboxylic Acid]
Kb [1]: 2200 nM | Kb [2]: 900 nM | Kb [3]: 100 nM | Kb [4]: 70 nM

CC(C)COc1ccc(OC(F)(F)F)cc1Cn1ncc2cc(C(=O)O)cnc21 [Example 58, 1-(2-Isobutoxy-5-Trifluoromethoxy-Benzyl)-1H-Pyrazolo[3,4-B]Pyridine-5-Carboxylic Acid]
Kb [1]: 9800 nM | Kb [2]: ≥ 10000 nM | Kb [3]: 1800 nM | Kb [4]: 380 nM

CCC(CC)COc1ccc(Cl)cc1Cn1ncc2c(C(=O)O)cccc21 [Example 38, 1-[5-Chloro-2-(2-Ethyl-Butoxy)-Benzyl]-1H-Indazole-4-Carboxylic Acid]
Kb [1]: 1700 nM | Kb [2]: 60 nM | Kb [3]: 630 nM | Kb [4]: 400 nM

Cc1cn(Cc2cc(OC(F)(F)F)ccc2OCC(C)C)c2ccc(C(=O)O)cc12 [Example 75, 1-(2-Isobutoxy-5-Trifluoromethoxy-Benzyl)-3-Methyl-1H-Indole-5-Carboxylic Acid]
Kb [1]: ≥ 10000 nM | Kb [2]: 4400 nM | Kb [3]: 1300 nM | Kb [4]: 280 nM

CC(C)COc1ccc(Br)cc1Cn1ccc2cc(C(=O)O)cnc21 [Example 72, 1-(5-Bromo-2-Isobutoxy-Benzyl)-1H-Pyrrolo[2,3-B]Pyridine-5-Carboxylic Acid]
Kb [1]: ≥ 10000 nM | Kb [2]: 2000 nM | Kb [3]: 1500 nM | Kb [4]: 220 nM

Reference: patent publication US10988474B2, “Compounds acting at multiple prostaglandin receptors giving a general anti-inflammatory response” (ALLERGAN, INC., priority 2011, dated 2021)
